Laboratory results as given in PMC8406809 (Antimicrobial Agents and Chemotherapy, 2021).

Experiments:
Huh7.5 cells = type: cell-based, human; settings: higher concentrations marked # in Fig. 4A
[1] = tested on: original-SARS2 (P2VeroE6 virus, SARS-CoV-2_DK-AHH1); assay: microbe, parasite or virus in culture; type: cell-based

**Q.** Which cytotoxicity (Huh7.5 cells) does the source give for `COc1c(NC(=O)C(=O)c2ccc(OCCN3CCOCC3)c3ccccc23)cc(C(C)(C)C)cc1NS(C)(=O)=O` [ITX5061] here?
**A.** cytotoxic

**Q.** `CCC(CC)COC(=O)[C@H](C)N[P@](=O)(OC[C@H]1O[C@@](C#N)(c2ccc3c(N)ncnn23)[C@H](O)[C@@H]1O)Oc1ccccc1` [Remdesivir] was tested. Which “fold-higher activity in Huh7.5 cells than in Vero E6 cells” value [1] did it give?
**A.** ~50 fold

**Q.** And the EC50 ([1]; Severe acute respiratory syndrome coronavirus 2, Huh7.5)?
**A.** 30 nM
